The source made the active and inactive calls. The rule behind the calls is not given here.
System: HEK-293T
Experiment: Cytotoxicity against AP1 expressing HEK293T cells coexpressing beta-lactamase pre-incubated 1 hr before TPA addition measured 18 hrs post TPA challenge by fluorimetric assay
Assay type: functional, cell-based
Conditions: Homo sapiens

Row | SMILES | Activity
1 | CC[C@H]1NC(=O)[C@@H]2CSC(=N2)[C@@H](Cc2ccccc2)N(C)C(=O)[C@@H]2CCCN2C(=O)[C@H](C(C)C)N(C)C(=O)[C@H](Cc2ccccc2)OC(=O)[C@H](C)[C@@H](C)NC(=O)[C@@H](C(C)C)NC(=O)[C@@H](Cc2ccccc2)N(C)C(=O)[C@@H]2CSC1=N2 | Active
2 | CC(C)[C@H]1C(=O)N2CCC[C@H]2C(=O)N(C)[C@H](Cc2ccccc2)C2=N[C@@H](CS2)C(=O)N[C@H](C)C2=N[C@@H](CS2)C(=O)N(C)[C@H](Cc2ccccc2)C(=O)N[C@H](C(C)C)C(=O)N[C@H](C)[C@@H](C)C(=O)O[C@@H](Cc2ccccc2)C(=O)N1C | Active

— ChEMBL document CHEMBL1821559, “Grassypeptolides F and G, cyanobacterial peptides from Lyngbya majuscula” (J Nat Prod, 2011)
